Here are results for four compounds from patent publication US7396834B2, “4(Phenyl-piperazinyl-methyl) benzamide derivatives and their use for the treatment of pain or gastrointestinal disorders” (AstraZeneca AB, priority 2002, dated 2008).

Structures are written as SMILES.

For experiment [1], the target named is T1, cloned human δ receptors (Homo sapiens, UniProt P41143).
T1 construct: expressed in transfected cells; host or cells: human HEK-293S cells, grown in suspension under geneticin selection
Nature of the experiment: Human δ receptor radioligand binding assay.

Experiment [2] has as its target T2, cloned human μ receptors (Homo sapiens, UniProt P35372).
T2 construct: expressed in transfected cells; host or cells: human HEK-293S cells, grown in suspension under geneticin selection
In words: Human μ receptor radioligand binding assay.

Experiment [3] concerns the target T1, cloned human δ receptors. Nature of the experiment: Human δ receptor GTP[γ]35S functional assay (low expression). Format: biochemical. The note with it: for Emax: relative to SNC80, lower expression level, range over the listed compounds. Here is the method:
(§1) Human 293S cells expressing cloned human κ, δ and μ receptors and neomycin resistance are grown in suspension at 37° C. and 5% CO2 in shaker flasks containing calcium-free DMEM10% FBS, 5% BCS, 0.1% Pluronic F-68, and 600 μg/ml geneticin.
(§2) Cells are pelleted and resuspended in lysis buffer (50 mM Tris, pH 7.0, 2.5 mM EDTA, with PMSF added just prior to use to 0.1 mM from a 0.1 M stock in ethanol), incubated on ice for 15 min, then homogenized with a polytron for 30 sec. The suspension is spun at 1000 g (max) for 10 min at 4° C. The supernatant is saved on ice and the pellets resuspended and spun as before. The supernatants from both spins are combined and spun at 46,000 g(max) for 30 min. The pellets are resuspended in cold Tris buffer (50 mM Tris/Cl, pH 7.0) and spun again. The final pellets are resuspended in membrane buffer (50 mM Tris, 0.32 M sucrose, pH 7.0). Aliquots (1 ml) in polypropylene tubes are frozen in dry ice/ethanol and stored at −70° C. until use. The protein concentrations are determined by a modified Lowry assay with sodium dodecyl sulfate.
The agonist activity of the compounds is measured by determining the degree to which the compounds receptor complex activates the binding of GTP to G-proteins to which the receptors are coupled. In the GTP binding assay, GTP[γ]^35S is combined with test compounds and membranes from HEK-293S cells expressing the cloned human opioid receptors or from homogenised rat and mouse brain. Agonists stimulate GTP[γ]^35S binding in these membranes. The EC50 and Emax values of compounds are determined from dose-response curves. Right shifts of the dose response curve by the delta antagonist naltrindole are performed to verify that agonist activity is mediated through delta receptors. For human δ receptor functional assays, EC50 (low) is measured when the human δ receptors used in the assay were expressed at lower levels in comparison with those used in determining EC50 (high). The Emax values were determined in relation to the standard δ agonist SNC80, i.e., higher than 100% is a compound that have better efficacy than SNC80.

Experiment [4] has as its target T1, cloned human δ receptors. In words: Human δ receptor GTP[γ]35S functional assay (high expression). Format: biochemical. Here is the method:
as §1
as §2, with “The final pellets are resuspended in membrane buffer (50 mM Tris, 0.32 M sucrose, pH 7.0). Aliquots (1 ml) in polypropylene tubes are frozen in dry ice/ethanol and stored at −70° C. until use.” left out
The agonist activity of the compounds is measured by determining the degree to which the compounds receptor complex activates the binding of GTP to G-proteins to which the receptors are coupled. […] The EC50 and Emax values of compounds are determined from dose-response curves. […] For human δ receptor functional assays, EC50 (low) is measured when the human δ receptors used in the assay were expressed at lower levels in comparison with those used in determining EC50 (high). […]

Experiment [5] has as its target cloned human κ receptors (Homo sapiens, UniProt P41145). Nature of the experiment: Human κ receptor radioligand binding assay. The note with it: membranes of human 293S cells; Table 1.
In experiment [6] the target is T3, δ receptors in rat brain membranes (Rattus norvegicus, UniProt P33533).
T3 construct: membranes from HEK-293S cells expressing the cloned human opioid receptors or from homogenised rat and mouse brain; from tissue; host or cells: rat brain homogenate membranes
In words: Rat brain GTPγ35S functional assay. Format: biochemical. How it is done: Rat brains are weighed and rinsed in ice-cold PBS (containing 2.5 mM EDTA, pH 7.4). The brains are homogenized with a polytron for 30 sec (rat) in ice-cold lysis buffer (50 mM Tris, pH 7.0, 2.5mM EDTA, with phenylmethylsulfonyl fluoride added just prior use to […] from a 0.5M stock in DMSO:ethanol).
The agonist activity of the compounds is measured by determining the degree to which the compounds receptor complex activates the binding of GTP to G-proteins to which the receptors are coupled. In the GTP binding assay, GTP[γ]^35S is combined with test compounds and membranes from HEK-293S cells expressing the cloned human opioid receptors or from homogenised rat and mouse brain. Agonists stimulate GTP[γ]^35S binding in these membranes. The EC50 and Emax values of compounds are determined from dose-response curves. […] For human δ receptor functional assays, EC50 (low) is measured when the human δ receptors used in the assay were expressed at lower levels in comparison with those used in determining EC50 (high). […]
Rat brain membranes are thawed at 37° C., passed 3 times through a 25-gauge blunt-end needle and diluted in the GTPYS binding (50 mM Hepes, 20 mM NaOH, 100 mM NaCl, 1 mM EDTA, 5 mM MgCl2, pH 7.4, Add fresh: 1 mM DTT, 0.1% BSA). […] The basal and maximal stimulated binding are determined in absence and presence of 3 μM SNC-80.

The mark [7] stands for this setting: Human δ IC50, Table 2, range over the listed compounds.
[8] abbreviates: Human μ IC50, Table 2, range over the listed compounds.

T2 sequence (P35372 whole entry): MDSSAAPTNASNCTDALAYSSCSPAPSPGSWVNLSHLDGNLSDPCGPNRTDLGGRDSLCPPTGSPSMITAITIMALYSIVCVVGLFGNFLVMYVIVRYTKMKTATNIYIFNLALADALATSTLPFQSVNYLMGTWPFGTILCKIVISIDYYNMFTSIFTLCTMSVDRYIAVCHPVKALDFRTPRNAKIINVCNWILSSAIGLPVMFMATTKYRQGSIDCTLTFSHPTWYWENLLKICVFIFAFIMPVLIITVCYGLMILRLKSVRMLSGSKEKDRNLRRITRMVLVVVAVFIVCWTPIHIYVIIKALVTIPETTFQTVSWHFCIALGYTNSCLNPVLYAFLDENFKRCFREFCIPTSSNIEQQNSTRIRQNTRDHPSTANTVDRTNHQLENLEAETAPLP
T1 sequence (P41143 whole entry): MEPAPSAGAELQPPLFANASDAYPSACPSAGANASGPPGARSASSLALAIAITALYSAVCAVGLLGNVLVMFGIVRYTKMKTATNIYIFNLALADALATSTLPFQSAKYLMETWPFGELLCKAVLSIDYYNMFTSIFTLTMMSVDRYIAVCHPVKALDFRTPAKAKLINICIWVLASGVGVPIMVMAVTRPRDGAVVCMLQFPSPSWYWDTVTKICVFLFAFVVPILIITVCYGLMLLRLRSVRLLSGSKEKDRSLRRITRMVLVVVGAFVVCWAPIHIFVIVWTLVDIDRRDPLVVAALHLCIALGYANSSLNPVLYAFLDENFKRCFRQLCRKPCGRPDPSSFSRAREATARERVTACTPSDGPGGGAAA
T3 sequence (P33533 whole entry): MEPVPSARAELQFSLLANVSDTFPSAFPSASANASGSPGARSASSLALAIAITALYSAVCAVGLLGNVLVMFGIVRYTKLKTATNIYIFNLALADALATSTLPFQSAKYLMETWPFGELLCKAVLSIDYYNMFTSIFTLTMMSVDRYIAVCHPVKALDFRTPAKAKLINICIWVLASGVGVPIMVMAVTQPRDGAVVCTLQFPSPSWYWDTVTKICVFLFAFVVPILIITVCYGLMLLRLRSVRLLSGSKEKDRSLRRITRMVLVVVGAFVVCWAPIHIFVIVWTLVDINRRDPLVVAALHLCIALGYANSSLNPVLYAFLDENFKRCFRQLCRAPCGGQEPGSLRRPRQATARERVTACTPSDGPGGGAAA
Sequence of cloned human κ receptors (P41145 whole entry): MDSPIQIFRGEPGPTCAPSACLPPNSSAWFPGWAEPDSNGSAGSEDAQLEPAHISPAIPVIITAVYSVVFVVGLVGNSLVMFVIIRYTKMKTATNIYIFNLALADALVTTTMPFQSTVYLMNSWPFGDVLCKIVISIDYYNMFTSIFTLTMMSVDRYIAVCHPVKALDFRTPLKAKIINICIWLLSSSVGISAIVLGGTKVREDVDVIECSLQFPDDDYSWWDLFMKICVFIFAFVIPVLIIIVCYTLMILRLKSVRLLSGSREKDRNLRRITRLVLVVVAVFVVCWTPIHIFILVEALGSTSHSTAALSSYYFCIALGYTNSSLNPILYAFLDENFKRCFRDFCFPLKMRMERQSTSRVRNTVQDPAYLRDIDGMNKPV

In general, IC50 refers to the concentration needed to halve the response being measured. A higher IC50 goes with weaker potency in that assay. The term EC50 denotes the concentration at which the effect is half-maximal. Low readings indicate higher potency in that assay, high ones lower potency in that assay. Broadly, the Emax is the greatest response seen or fitted, relative to the assay's reference. Regarding `CCN(CC)C(=O)c1ccc(C(c2cccc(C(N)=O)c2)N2CCN(Cc3ccco3)CC2)cc1` (single isomer, unassigned) [Compound 2a, 3-{(4-[(diethylamino)carbonyl]phenyl)[4-(2-furylmethyl)-piperazin-1-yl]methyl}benzamide], the half-inhibitory concentration (IC50) in experiment [1] (setting [7]) lay within 0.14 to 3.73 nM; in experiment [2] (setting [8]) it was 45 to 1720 nM. The 50% effective concentration (EC50) in experiment [3] was in the range of 0.5 to 83 nM. The maximal effect (Emax) in experiment [3] was 91 to 104%.
On to `CCN(CC)C(=O)c1ccc(C(c2cccc(C(N)=O)c2)N2CCN(Cc3ccccc3)CC2)cc1` (single isomer, unassigned) [Compound 1a, 3-[(4-[(diethylamino)carbonyl]phenyl)(4-benzyl-piperazin-1-yl)methyl]benzamide], for which the IC50 in experiment [1] (Human δ IC50, membranes of human 293S cells, displacement of radioligand, Table 1) is 0.26 nM; in experiment [5] it was 112 nM; in experiment [2] (Human μ IC50, membranes of human 293S cells, Table 1), 7.7 nM. Besides, the 50% effective concentration (EC50) in experiment [4] came to 0.29 nM; in experiment [6], 0.2 nM. Besides, the Emax in experiment [4] (relative to standard δ agonist SNC80, higher expression level) turned out to be 101%; in experiment [6] (relative to SNC80, rat brain membranes) it was 170%.
For `CCN(CC)C(=O)c1ccc(C(c2cccc(C(=O)NC)c2)N2CCN(Cc3ccccc3)CC2)cc1` (single isomer, unassigned) [Compound 3a, 3-[[4-[(diethylamino)carbonyl]phenyl][4-(phenylmethyl)-1-piperazinyl]methyl]-N-methyl-benzamide], the half-inhibitory concentration (IC50) in experiment [1] (setting [7]) is 0.14 to 3.73 nM. The IC50 in experiment [2] (setting [8]) was 45 to 1720 nM. Moreover, in experiment [3], the 50% effective concentration (EC50) fell in the range of 0.5 to 83 nM and the maximal response (Emax) fell in the range of 91 to 104%.
`CCN(CC)C(=O)c1ccc(C(c2cccc(C(N)=O)c2)N2CCN(Cc3ccccc3)CC2)cc1` (single isomer, unassigned) [Compound 1b, 3-[(4-[(diethylamino)carbonyl]phenyl)(4-benzyl-piperazin-1-yl)methyl]benzamide]: the IC50 in experiment [1] (setting [7]) was 0.14 to 3.73 nM; in experiment [2] (setting [8]), 45 to 1720 nM. This compound also returned a concentration giving a half-maximal response (EC50) in experiment [3] of 0.5 to 83 nM. This compound returned an Emax in experiment [3] of 91 to 104%.
